Series [1] has as its system ACHN cells. In words: SRB assay of cell survival / growth inhibition. It is filed as cell-based, Human. The following applies: 5 µM sorafenib or 10 µM GW5074 alone, or both combined (GW5074 30 minutes before sorafenib); 24 hours. The method, then: Human renal carcinoma (ACHN) cells were cultured in Eagle MEM (Minimum Essential Medium) with 10% FBS (Fetal Bovine Serum) and 1% penicillin/streptomycin. Sulforhodamine B (SRB) is a negative […] with a sulfonic acid group and binds to basic amino acids of intracellular proteins in weak acidic conditions. The SRB […] was extracted from cells using weak alkaline solution and then subjected to absorbance measurement. The amount of intracellular proteins, which is an indicator for cell survival, can be calculated from the amount of SRB.

The test system of series [2] is ACHN cells. In words: ACHN xenograft in immunodeficient mice, tumor volume. It is filed as in vivo. The following applies: 5 mg/kg sorafenib oral, 10 mg/kg GW5074 s.c., alone or combined; once a day for three weeks; n=8. How it is done:
Six-week old immnunodeficient male mice (BALB/cAnN.Cg-Foxn1^nu/CrlNarl) with an average weight of 20 grams were xenografted with 1x10^7 ACHN cells to the right by […]. The mice were maintained in a specific pathogen-free (SPF) environment. The size of tumor was measured using a digital caliper twice a week and tumor volume was calculated by the equation of length^∗width^∗height^∗0.5. […] A total of four groups were included in the experiment: a control group which received only vehicle (DMSO), […], 25 mg/kg GW5074, […], respectively, with 8 mice in each group.

A further series deals with Luc-ACHN-LL cells. In words: Orthotopic metastasis model of renal carcinoma, IVIS photon signal and survival. It is filed as in vivo, mice. The following applies: for death within, following injection of cancer cells: 10 mg/kg sorafenib alone or 25 mg/kg GW5074 alone. How it is done: To simulate clinical phenomenon, we established an orthotopic spontaneous animal model for studying metastasis of renal carcinoma. First, ACHN cells were transfected with the luciferase gene and the resultamt Luc-ACHN transfectants (stable transfectants which express the luciferase) with different expression levels were then selected for in vivo culture in mice by subcutaneous injection. Six-week old and shaved mice were subcutaneously injected with 1×10^7 Luc-ACHN cells In 0.1 ml PBS. Two months after the injection, the mice were sacrificed and their kidneys, livers, regional lymph nodes as well as other organs were collected for assessing tumor cells that were potentially metastatic, which was confirmed by hematoxylin-eosin (H&E) staining. Tumor cell lines that are highly metastatic were dissected in 1 ml PBS into small pieces aseptically and then cultured in MEM media containing 10% FBS (fetal bovine serum) and 1% penicillin/streptomycin following centrifugation. A few days later, monoclonal cell lines were first treated with the trypsin to dissociate the cells and then cultured in vitro. The cells obtained from liver tumor tissues were named ACHN-L. The metastatic potential of various monoclonal cell lines collected from different organs was further analyzed by xenografting these tumor cells to the left kidneys of mice. The xenografted mice were sacrificed and examined 8 weeks after the injection of tumor cells. The tumor growth observed in each organ was investigated through visual examination and histology procedures. The metastatic cells found in the liver were dissected into small pieces aseptically and cultured in vitro. The cells obtained from liver tumor tissues were named ACHN-L (subcutaneous injection) cells and the cells collected from the metastatic lesions after injection of ACHN-L cells to the left kidneys were called ACHN-LL cells. The same procedure using orthotopic xenograft of ACHN-LL cells and liver metastatic cells was repeated twice to select for highly metastatic tumors. The cancer cell line (Luc-ACHN-LL), which is highly metastatic and causes high mortality, was selected. Immunodeficient male mice was injected with 3×10^5 Luc-ACHN-LL cells in 50 µL PBS at the right renal capsule. The in vivo luciferase activity was examined every day for up to three weeks so as to assure that there were no leakage of cancer cells at the kidneys immediately after the injection and to monitor the metastasis of these cancer cells. Two to five minutes before utilizing the IVIS Xenogene system, 75 mg/kg D-Luciferin (Xenogen) in PBS was injected to the retro-orbital sinus of each mouse. […]

For series [3], the system named is ACHN cells. In words: Annexin V-FITC / propidium iodide flow cytometry for apoptosis or necrosis. Type of series: cell-based, Human. Conditions: 5 µM sorafenib, 10 µM GW5074 or both; 24 hours; n=4. The method, then:
(§1) The combination therapy of sorafenib and GW5074 induces cell necrosis through the dephosphorylation of the death-associated DAPK at serine 308 followed by dissociation from proto-oncogene c-Raf. Cells were cultured as described in example 1, washed with phosphate buffered saline (PBS), and stained with the annexin V-FITC and propidium iodide (PI) for 15 minutes. The presence of fluorescent Annexin V as well as propidium iodide (PI) was detected by flow cytometry so as to determine whether the cell death is caused by apoptosis or necrosis. The expression of c-Raf and DAPK as well as the phosphorylation level of DAPK were examined by Western blot and immunoprecipitation using antibodies. Anti-DAPK antibodies or non-immune rabbit IgG (IP: immunoglobulin) were included as negative controls, and cell survival was measured by SRB assay, as shown In example 1. In this experiment, ACHN cells were treated separately with DMSO (as a control group), 5 µM sorafenib, 10 µM GW5074, or the combination therapy of 5 µM sorafenib and 10 µM GW5074 for 24 hours.
On the technique in general: A flow cytometer gives signals particle by particle.

The next series concerns pDAPK^S308. In words: Western blot of DAPK S308 phosphorylation in ACHN cells. It is filed as cell-based, Human. The following applies: various concentrations, only when provided 30 minutes prior to the combination drugs. The method, then:
as §1
(In general: Immunoblotting shows a protein as a band on a membrane.)

SMILES strings stand for the structures.

Take `O=C1Nc2ccc(I)cc2C1=Cc1cc(Br)c(O)c(Br)c1` [GW5074, 3-(3,5-Dibromo-4-hydroxy-benzylidene)-5-iodo-1,3-dihydro-indol-2-one]: the “growth inhibition of cells” value in the series with ACHN cells [1] is reported as “no growth inhibition”. In addition, in the series on ACHN cells [2], the “inhibition effect on xenografted tumor growth (tumor volume)” value was “nearly no inhibition effect”. Further, the “death within, following injection of cancer cells” value with Luc-ACHN-LL cells is at most 5 weeks. For the same compound, the “average cell necrosis rate” value with ACHN cells [3] is reported as 1.35%.

Turning to `C=C1[C@@H](O)[C@@H]2O[C@]3(CC[C@H](/C=C/[C@@H](C)[C@@H]4CC(C)=C[C@@]5(O[C@H](C[C@@](C)(O)C(=O)O)CC[C@H]5O)O4)O3)CC[C@H]2O[C@@H]1[C@@H](O)C[C@H](C)[C@H]1O[C@@]2(CCCCO2)CC[C@H]1C` [Okadaic acid], in the series with pDAPK^S308, the “inhibition of dephosphorylation of pDAPK^S308 and growth of ACHN cells” value is “effective”.

For the compound `CNC(=O)c1cc(Oc2ccc(NC(=O)Nc3ccc(Cl)c(C(F)(F)F)c3)cc2)ccn1` [sorafenib], the “growth inhibition of cells” value in the series on ACHN cells [1] was “no growth inhibition”. In the series with ACHN cells [2], the “inhibition effect on xenografted tumor growth (tumor volume)” value is “nearly no inhibition effect”. For the same compound, in the series with Luc-ACHN-LL cells, the “death within, following injection of cancer cells” value is on record as at most 8 weeks. Besides, in the series on Luc-ACHN-LL cells (high-dose 60 mg/kg sorafenib), the body weight entry is “loss of weight” and the death within was at most 10 weeks. For the same compound, the “average cell necrosis rate” value with ACHN cells [3] stood at 0.77%.
